Structures are written as SMILES.

One series concerns SNL L5/L6 rats. As to the kind of experiment: L5/L6 spinal nerve ligation (SNL) Chung pain model, tactile allodynia (von Frey). Particulars: for Rat SNL tactile allodynia, anti-allodynia (statement): compared to baseline and post-SNL. In kind it is in vivo, rat. An excerpt:
The Spinal Nerve Ligation is an animal model representing peripheral nerve injury generating a neuropathic pain syndrome. In this model experimental animals develop the clinical symptoms of tactile allodynia and hyperalgesia. L5/L6 Spinal nerve ligation (SNL) injury was induced using the procedure of Kim and Chung (Kim et al., Pain 50:355-363 (1992)) in male Sprague-Dawley rats (Harlan; Indianapolis, Ind.) weighing 200 to 250 grams.
Anaesthesia was induced with 2% isofluorane in O2 at 2 L/min and maintained with 0.5% isofluorane in O2. Rats were then shaved and aseptically prepared for surgeries. A 2 cm paraspinal incision was made at the level of L4-S2. L4/L5 was exposed by removing the transverse process above the nerves with a small rongeur. The L5 spinal nerve is the larger of the two visible nerves below the transverse process and lies closest to the spine. The L6 spinal nerve is located beneath the corner of the slope bone. A home-made glass Chung rod was used to hook L5 or L6 and a pre-made slip knot of 4.0 silk suture was placed on the tip of the rod just above the nerve and pulled underneath to allow for the tight ligation. The L5 and L6 spinal nerves were tightly ligated distal to the dorsal root ganglion. The incision was closed, and the animals were allowed to recover for 5 days.
Sham control rats underwent the same operation and handling as the experimental animals, but without SNL.
Prior to initiating drug delivery, baseline behavioural testing data is obtained. At selected times after infusion of the Test or Control Article behavioural data can then be collected again.
The assessment of tactile allodynia consisted of measuring the withdrawal threshold of the paw ipsilateral to the site of nerve injury in response to probing with a series of calibrated von Frey filaments (innocuous stimuli). Animals were acclimated to the suspended wire-mesh cages for 30 min before testing. Each von Frey filament was applied perpendicularly to the plantar surface of the ligated paw of rats for 5 sec. A positive response was indicated by a sharp withdrawal of the paw. For rats, the first testing filament is 4.31. Measurements were taken before and after administration of test articles. […] The protocol was repeated until three changes in behaviour were determined (“up and down” method) (Chaplan et al., J. Neurosci. Methods 53:55-63 (1994)). The 50% paw withdrawal threshold was determined as (10^[Xf+kδ])/10,000, where Xf=the value of the last von Frey filament employed, k=Dixon value for the positive/negative pattern, and δ=the logarithmic difference between stimuli. The cut-off values for rats were no less than 0.2 g and no higher than 15 g (5.18 filament); for mice no less than 0.03 g and no higher than 2.34 g (4.56 filament). A significant drop of the paw withdrawal threshold compared to the pre-treatment baseline is considered tactile allodynia.
Rat SNL tactile allodynia were tested for Compounds 1-4 and 9-12 at 60 minutes compared to baseline and post-SNL. […] FIG. 1 is a plot of the antiallodynic effects of compound 4 (i.p.) tested in SNL L5/L6 rats using von Frey at three different doses, namely 3, 10 and 30 mpk, compared to vehicle alone. […] Rat SNL tactile allodynia were tested at 1, 2 and 4 hours after drug treatment (Table 6).

A short description of series [1]: Rat Early Pharmacokinetic (EPK) study. In kind it is in vivo. The settings on record: 30 mg/kg PO, 0.5% CMC; for Tmax: male, Sprague-Dawley, blood. Here is the method: Male Sprague-Dawley rats were dosed via oral (PO) gavage in the detailed formulation. Blood samples were collected from the animals at 6 timepoints out to 4 hours post-dose. Pharmacokinetic analysis was performed on the LC-MS/MS measured concentrations for each timepoint of each compound.

Series [2] addresses T1, Nav1.7 channels expressed in HEK cells (Homo sapiens, UniProt Q15858).
T1 construct: expressed in transfected cells; host or cells: HEK cells
Briefly: Nav1.7 voltage-clamp electrophysiological assay (enhancement of slow inactivation). The class given is cell-based. The settings on record: n 5 cells. Here is the method:
To examine the effects of compounds on enhancement of slow inactivation of Nav1.7 and Nav1.8 channels expressed in HEK cells the culture media was replaced with an extracellular solution containing (in mM): 137 NaCl, 4 KCl, 1.8 CaCl2, 1 MgCl2, 10 HEPES, 10 glucose, pH adjusted to 7.4 with NaOH. The intracellular solution contained (in mM): 130 KCl, 1 MgCl2, 5 EGTA, 10 HEPES, 5 K2ATP, adjusted to pH 7.3 with KOH. Whole-cell recordings, preparation and application of test compounds were performed in a similar manner to the Cav3.2 electrophysiological assays. Voltage protocols were applied to quantify the effects of test compounds to enhance slow inactivation for Nav1.7 and Nav1.8.

T1 sequence (Q15858 whole entry): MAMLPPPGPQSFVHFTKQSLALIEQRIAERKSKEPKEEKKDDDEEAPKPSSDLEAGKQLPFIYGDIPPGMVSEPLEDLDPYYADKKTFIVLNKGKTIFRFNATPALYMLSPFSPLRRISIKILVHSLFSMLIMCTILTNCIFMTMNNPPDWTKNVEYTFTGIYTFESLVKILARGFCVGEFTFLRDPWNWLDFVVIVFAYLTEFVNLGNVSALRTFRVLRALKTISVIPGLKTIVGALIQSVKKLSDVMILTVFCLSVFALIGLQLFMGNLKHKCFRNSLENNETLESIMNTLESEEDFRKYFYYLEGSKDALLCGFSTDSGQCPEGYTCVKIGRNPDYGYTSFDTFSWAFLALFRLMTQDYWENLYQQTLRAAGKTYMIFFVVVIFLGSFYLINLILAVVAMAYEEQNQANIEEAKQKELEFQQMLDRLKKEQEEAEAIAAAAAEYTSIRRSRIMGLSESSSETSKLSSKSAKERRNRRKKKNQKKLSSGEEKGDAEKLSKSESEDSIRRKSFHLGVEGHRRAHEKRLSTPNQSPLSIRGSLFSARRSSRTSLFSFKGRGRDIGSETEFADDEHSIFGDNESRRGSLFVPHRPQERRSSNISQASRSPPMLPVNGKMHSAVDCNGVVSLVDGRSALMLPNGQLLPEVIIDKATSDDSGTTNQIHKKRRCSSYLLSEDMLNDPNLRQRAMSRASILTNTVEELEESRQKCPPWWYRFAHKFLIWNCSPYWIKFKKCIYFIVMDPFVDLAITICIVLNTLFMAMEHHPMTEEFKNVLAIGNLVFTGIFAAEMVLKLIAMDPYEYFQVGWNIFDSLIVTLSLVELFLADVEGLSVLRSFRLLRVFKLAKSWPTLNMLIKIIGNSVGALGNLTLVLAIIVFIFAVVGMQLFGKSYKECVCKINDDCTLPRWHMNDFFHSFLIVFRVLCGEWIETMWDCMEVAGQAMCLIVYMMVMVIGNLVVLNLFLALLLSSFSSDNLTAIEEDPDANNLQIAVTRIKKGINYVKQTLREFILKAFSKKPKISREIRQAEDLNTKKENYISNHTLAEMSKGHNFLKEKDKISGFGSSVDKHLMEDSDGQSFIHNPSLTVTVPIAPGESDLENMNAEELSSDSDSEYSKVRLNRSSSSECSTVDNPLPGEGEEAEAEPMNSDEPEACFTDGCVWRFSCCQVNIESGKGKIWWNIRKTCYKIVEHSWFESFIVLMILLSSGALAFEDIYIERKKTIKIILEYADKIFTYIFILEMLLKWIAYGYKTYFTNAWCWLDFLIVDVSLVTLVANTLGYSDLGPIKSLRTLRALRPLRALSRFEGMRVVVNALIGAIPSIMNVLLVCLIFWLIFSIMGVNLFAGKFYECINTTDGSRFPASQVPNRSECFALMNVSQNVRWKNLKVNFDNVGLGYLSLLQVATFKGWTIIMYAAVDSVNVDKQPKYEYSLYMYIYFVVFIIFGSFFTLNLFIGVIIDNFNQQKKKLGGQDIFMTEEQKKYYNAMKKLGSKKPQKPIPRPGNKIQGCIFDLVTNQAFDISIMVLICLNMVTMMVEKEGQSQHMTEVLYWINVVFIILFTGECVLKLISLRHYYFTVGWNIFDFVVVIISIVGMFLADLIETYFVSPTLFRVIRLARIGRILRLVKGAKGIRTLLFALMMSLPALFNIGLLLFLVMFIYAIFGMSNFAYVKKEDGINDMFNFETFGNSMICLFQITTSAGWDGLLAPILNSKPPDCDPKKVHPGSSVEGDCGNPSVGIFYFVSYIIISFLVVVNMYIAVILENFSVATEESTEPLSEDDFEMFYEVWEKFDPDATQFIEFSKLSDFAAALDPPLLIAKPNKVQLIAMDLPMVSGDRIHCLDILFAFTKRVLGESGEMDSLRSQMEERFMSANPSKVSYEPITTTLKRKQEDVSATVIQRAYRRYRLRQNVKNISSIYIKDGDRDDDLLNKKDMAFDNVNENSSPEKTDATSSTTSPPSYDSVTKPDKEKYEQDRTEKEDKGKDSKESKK

In the case of `O=C1CN(C(=O)NC(c2ccccc2)c2ccccc2)CCN1` [Compound 1, N-benzhydryl-3-oxopiperazine-1-carboxamide], in the series on SNL L5/L6 rats (1 hour after drug treatment), the “Rat SNL Tactile Allodynia (% Antiallodynia)” value was 10%. For the same compound, the “Rat SNL Tactile Allodynia (% Antiallodynia)” value in the series on SNL L5/L6 rats (2 hours after drug treatment) is 19%. Also, in the series with SNL L5/L6 rats (4 hours after drug treatment), the “Rat SNL Tactile Allodynia (% Antiallodynia)” value turned out to be 26%. Besides, the “Rat SNL tactile allodynia, anti-allodynia (statement)” value with SNL L5/L6 rats is recorded as “significant anti-allodynia”. Further, in series [1], the “Dose Normalized AUC” value came out at 993 nM·h; the “Dose Normalized Cmax” value is 333 nM; the Tmax (in general, the time from dosing to the highest level) stood at 102 min.
In the case of `O=C1CN(C(=O)C[S+]([O-])C(c2ccccc2)c2ccccc2)CCN1` (centres unmarked) [Compound 2, 4-(2-(benzhydrylsulfinyl)acetyl)piperazin-2-one], in series [1], the “Dose Normalized AUC” value amounted to 283 nM·h, the “Dose Normalized Cmax” value worked out at 182 nM and the Tmax turned out to be 30 min.
With `O=C1CN(C(=O)C(c2ccccc2)c2ccccc2)CCN1` [Compound 7, 4-(2,2-diphenylacetyl)piperazin-2-one], the entries for the “Rat SNL Tactile Allodynia (% Antiallodynia)” value with SNL L5/L6 rats (1 hour after drug treatment), in the series with SNL L5/L6 rats (2 hours after drug treatment) and in the series with SNL L5/L6 rats (4 hours after drug treatment) were 10%, 9% and 14%, respectively. Moreover, the “Dose Normalized AUC” value in series [1] was 1087 nM·h. Moreover, the “Dose Normalized Cmax” value in series [1] came out at 730 nM. The Tmax in series [1] is 30 min.
With `O=C1CN(C(=O)C=C(c2ccccc2)c2ccccc2)CCN1` [Compound 8, 4-(3,3-diphenylacryloyl)piperazin-2-one], in the series with SNL L5/L6 rats (1 hour after drug treatment), the “Rat SNL Tactile Allodynia (% Antiallodynia)” value was 17%. Further, in the series on SNL L5/L6 rats (2 hours after drug treatment), the “Rat SNL Tactile Allodynia (% Antiallodynia)” value is listed as 24%. In addition, the “Rat SNL Tactile Allodynia (% Antiallodynia)” value in the series on SNL L5/L6 rats (4 hours after drug treatment) was 17%. For the same compound, in series [1], the “Dose Normalized AUC” value stood at 185 nM·h, the “Dose Normalized Cmax” value stood at 132 nM and the Tmax amounted to 40.2 min.
Turning to `O=C1CN(C(=O)CC(c2ccc(F)cc2)c2ccc(F)cc2)CCN1` [Compound 9, 4-(3,3-bis(4-fluorophenyl)propanoyl)piperazin-2-one], the “Rat SNL Tactile Allodynia (% Antiallodynia)” value with SNL L5/L6 rats (1 hour after drug treatment) came to 7%; with SNL L5/L6 rats (2 hours after drug treatment), 10%; with SNL L5/L6 rats (4 hours after drug treatment) it was 7%. The “Rat SNL tactile allodynia, anti-allodynia (statement)” value with SNL L5/L6 rats was “significant anti-allodynia”. Besides, the Fraction current remaining in series [2] (concentration tested 10 μM) is 0.93; in series [2] (concentration tested 100 μM), 0.86.
For `O=C1CN(C(=O)C(c2ccc(Cl)cc2)c2ccc(Cl)cc2)CCN1` [Compound 13, 4-(2,2-bis(4-chlorophenyl)acetyl)piperazin-2-one], the “Rat SNL tactile allodynia, anti-allodynia (statement)” value in the series with SNL L5/L6 rats is “significant anti-allodynia”.
For the compound `CC1(C)C(=O)NCCN1C(=O)CC(c1ccc(F)cc1)c1ccc(F)cc1` [Compound 15, 4-(3,3-bis(4-fluorophenyl)propanoyl)-3,3-dimethylpiperazin-2-one], the entries for the “Rat SNL Tactile Allodynia (% Antiallodynia)” value in the series with SNL L5/L6 rats (1 hour after drug treatment), in the series on SNL L5/L6 rats (2 hours after drug treatment) and in the series with SNL L5/L6 rats (4 hours after drug treatment) were 11%, 8% and 15%, respectively.

The values above are taken from patent US8629149B2, “Oxopiperazine derivatives for the treatment of pain and epilepsy” (Zalicus Pharmaceuticals Ltd., priority 2009, dated 2014).
